Laboratory results from patent US20190160064A1, “METHODS FOR TREATING SKELETAL MUSCLE CACHEXIA ARISING FROM BURN INJURY BY ADMINISTERING PDE4B-SELECTIVE INHIBITORS” (University of Cincinnati, priority 2017, published 2019).

What was measured:
[1] = test system: EDL muscle of burned WT rats; assay: Pre-treatment of WT rats before burn injury, EDL muscle protein breakdown (Example 6); assay type: in vivo, rat; details: adult WT rats pre-treated daily for 7 days before 30% TBSA burn, 24 h after burn, vs. saline control WT rats
Procedure: Adult WT rats are pre-treated with either PDE4B-selective inhibitor (4-{[2-(5-Chloro-2-thienyl)-5-ethyl-6-methyl-4-pyrimidinyl]amino}phenyl)acetic acid (test group) or saline (control group). Rats are treated daily for 7 days prior to burn exposure. On day 8, rats are anaesthetized, shaved, and subjected to a third-degree burn on the back, affecting 30% of total body surface area (TBSA). Both test WT rats and control WT rats are then resuscitated. All rats are provided with rat chow equivalent to ˜10% of their body weight.
After 24 h, all rats are re-anesthetized and the gastrocnemius muscles are dissected and rapidly frozen in liquid nitrogen. To assess protein breakdown rates, the dissected extensor digitorum longus (EDL) muscles are tied by the tendons at resting length to stainless steel supports and preincubated in a shaking water bath for 30 min at 37° C. in individually stoppered 25 ml flasks containing oxygenated (95% 02-5% CO2) Krebs-Henseleit bicarbonate buffer (pH 7.4) with 10 mM glucose. Muscles are then transferred to fresh buffer containing 0.5 mM cycloheximide for 2 h incubation. The total (tyrosine) and myofibrillar (1-methyl-histidine, 1-Me-His) protein breakdown rates are determined by measuring the net production of tyrosine and 1-Me-His during 2 h incubation.

PDE4D in lung tissue = details: murine model of asthma; cited from earlier work
[2] = test system: EDL muscle of burn-PDE4B KO rats; assay: EDL muscle protein breakdown during 2 h in vitro incubation with EPAC/PKA inhibitors; assay type: cell-based, rat; details: EDL muscle of burn-PDE4B KO rats obtained 24 h after burn, 2 h in vitro incubation with inhibitor
Procedure: After 24 h, rats were re-anesthetized with pentobarbital (50 mg/kg), and the gastrocnemius muscles were dissected and rapidly frozen in liquid nitrogen. To assess protein breakdown rates, the dissected extensor digitorum longus (EDL) muscles were tied by the tendons at resting length to stainless steel supports and preincubated in a shaking water bath for 30 min at 37° C. in individually stoppered 25 ml flasks containing 3 ml oxygenated (95% 02-5% CO2) Krebs-Henseleit bicarbonate buffer (pH 7.4) with 10 mM glucose. Muscles were then transferred to fresh buffer containing 0.5 mM cycloheximide for 2 h incubation. The total (tyrosine) and myofibrillar (1-methyl-histidine, 1-Me-His) protein breakdown rates were determined by measuring the net production of tyrosine and 1-Me-His during 2 h incubation, according to previously published HPLC procedures (Balasubramaniam, A., et al., Torbafylline (HWA 448) inhibits skeletal muscle proteolysis in burned rats, J. Burn Care & Res. 30: S151 (2009)). The protein breakdown studies with PDE4B KO-rats were repeated with eight each of sham and burn rats to corroborate our initial findings. Additional in vivo experiments were performed to obtain tissues for biochemical studies and to study the effects of inhibitors of PKA (H89) and EPAC (ESI-09) on EDL protein breakdown in PDE4B KO-rats.
To elucidate the factor(s) imparting resistance to burn-induced skeletal muscle proteolysis in PDE4B-KO rats, EDL muscles of burn-PDE4B KO rats were incubated in the presence of inhibitors for cAMP downstream elements, PKA (H89) and EPAC (ESI-09).

mouse myotubes, C2C12 = details: C2C12 myotubes treated with TNFα+IFNγ; cited from earlier work
[3] = test system: burn-induced skeletal muscle proteolysis; details: rat, burn injury; cited from earlier work

For `CCc1c(C)nc(-c2ccc(Cl)s2)nc1Nc1ccc(CC(=O)O)cc1` [Compound 33, (4-{[2-(5-Chloro-2-thienyl)-5-ethyl-6-methyl-4-pyrimidinyl]amino}phenyl) acetic acid], the “1-Me-His release from the EDL muscle (myofibrillar protein breakdown)” value [1] was “significantly decreases” and the “Tyr release from the EDL muscle (total protein breakdown)” value [1] was “significantly decreases”.

For ciclamilast, the “PDE4D activity in lung tissue” value (PDE4D in lung tissue) is listed as “normalized” and the “PDE4D mRNA expression in lung tissue” value (PDE4D in lung tissue) is listed as “normalized”.

In the case of `O=S(=O)(NCCNC/C=C/c1ccc(Br)cc1)c1cccc2cnccc12` [Compound H89], the “burn-induced EDL muscle myofibrillar protein breakdown (1-Me-His)” value [2] is reported as “did not exhibit any effect” and the “burn-induced EDL muscle total protein breakdown (Tyr)” value [2] is reported as “did not exhibit any effect”.

For `CCOCn1cnc2c1c(=O)n(CCCCC(C)(C)O)c(=O)n2C` [torbafylline], the PDE4B expression (mouse myotubes, C2C12) is listed as “normalized”, the “proteolysis (protein breakdown)” value (mouse myotubes, C2C12) is listed as “normalized” and the EPAC/PI3K/Akt pathway [3] is listed as “activating”. The “burn-induced skeletal muscle proteolysis” value [3] was “significantly attenuated”, the “skeletal muscle PDE4 activity” value [3] was “normalizing” and the “skeletal muscle cAMP concentrations” value [3] was “normalizing”.

In the case of `CC(C)(C)c1cc(C(=O)/C(C#N)=N/Nc2cccc(Cl)c2)no1` [ESI-09], the “burn-induced EDL muscle myofibrillar protein breakdown (1-Me-His)” value [2] is reported as “to the same extent as in the EDL muscle of burn-WT rats” and the “burn-induced EDL muscle total protein breakdown (Tyr)” value [2] is reported as “to the same extent as in the EDL muscle of burn-WT rats”.
